Like-named read-outs stand apart in the source and are kept apart here.
Tests used:
[1] = tested on: luminal, basal, claudin-low and ERBB2AMP breast cancer cell lines; test: Associations of clinically relevant subtypes and response (non-parametric ANOVA or t-test on GI50 ranks); assay type: cell-based, human; conditions: Table 6; most sensitive subtype, FDR p<0.20
In short: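 Significance was set at FDR p<0.20 after combining p-values across three test sets. Subtype–response associations came from rank-based non-parametric ANOVA or t-tests on GI50. For three-class comparisons, post-hoc tests of each group against the rest identified the most sensitive group, with FDR correction.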

[2] = tested on: panel of 55 breast cancer cell lines; test: Cell growth inhibition assay (Cell Titer Glo, 72 h, 9 doses; GI50, TGI, LC50); assay type: cell-based, human; conditions: Homo sapiens, read-out: GI50 (converted)

**Q.** For `Cc1[nH]c2ccccc2c1CCNCc1ccc(/C=C/C(=O)NO)cc1` [LBH589], which Subtype specificity [1] is on record?
**A.** Luminal

**Q.** What about the GI50 ([2]; 600MPE cell line, censored GI50 values) of the same compound?
**A.** 186 nM

**Q.** And the GI50 ([2]; AU565, AU565 cell line, censored GI50 values)?
**A.** 105 nM

**Q.** And the GI50 ([2]; AU565, cell line AU565)?
**A.** 105 nM

**Q.** And the GI50 ([2]; BT-20, BT20 cell line, censored GI50 values)?
**A.** 389 nM

**Q.** What about the GI50 ([2]; BT-20, cell line BT20) of the same compound?
**A.** 389 nM

**Q.** And the GI50 ([2]; BT-474, BT474 cell line, censored GI50 values)?
**A.** 34.7 nM

**Q.** What about the GI50 ([2]; BT-474, cell line BT474) of the same compound?
**A.** 34.7 nM

**Q.** And the GI50 ([2]; BT-483, BT483 cell line, censored GI50 values)?
**A.** 72.4 nM

**Q.** And the GI50 ([2]; BT-483, cell line BT483)?
**A.** 72.4 nM

**Q.** What about the GI50 ([2]; CAMA-1, CAMA1 cell line, censored GI50 values) of the same compound?
**A.** 61.7 nM

**Q.** What about the GI50 ([2]; CAMA-1, cell line CAMA1) of the same compound?
**A.** 61.7 nM

**Q.** And the GI50 ([2]; HCC38, HCC38 cell line, censored GI50 values)?
**A.** 35.5 nM

**Q.** What about the GI50 ([2]; HCC38, cell line HCC38) of the same compound?
**A.** 35.5 nM

**Q.** And the GI50 ([2]; HCC70, HCC70 cell line, censored GI50 values)?
**A.** 77.6 nM

**Q.** And the GI50 ([2]; HCC70, cell line HCC70)?
**A.** 77.6 nM

**Q.** And the GI50 ([2]; HCC1143, HCC1143 cell line, censored GI50 values)?
**A.** 83.2 nM

**Q.** What about the GI50 ([2]; HCC1143, cell line HCC1143) of the same compound?
**A.** 83.2 nM

**Q.** And the GI50 ([2]; HCC1187, HCC1187 cell line, censored GI50 values)?
**A.** 174 nM

**Q.** What about the GI50 ([2]; HCC1187, cell line HCC1187) of the same compound?
**A.** 174 nM

**Q.** And the GI50 ([2]; HCC1419, HCC1419 cell line, censored GI50 values)?
**A.** 58.9 nM

**Q.** And the GI50 ([2]; HCC1419, cell line HCC1419)?
**A.** 58.9 nM

**Q.** And the GI50 ([2]; HCC1428, HCC1428 cell line, censored GI50 values)?
**A.** 135 nM

**Q.** What about the GI50 ([2]; HCC1428, cell line HCC1428) of the same compound?
**A.** 135 nM

**Q.** What about the GI50 ([2]; HCC1500, HCC1500 cell line, censored GI50 values) of the same compound?
**A.** 162 nM

**Q.** And the GI50 ([2]; HCC1500, cell line HCC1500)?
**A.** 162 nM

**Q.** What about the GI50 ([2]; HCC1806, HCC1806 cell line, censored GI50 values) of the same compound?
**A.** 151 nM

**Q.** And the GI50 ([2]; HCC1806, cell line HCC1806)?
**A.** 151 nM

**Q.** What about the GI50 ([2]; HCC1937, HCC1937 cell line, censored GI50 values) of the same compound?
**A.** 191 nM

**Q.** And the GI50 ([2]; HCC1937, cell line HCC1937)?
**A.** 191 nM

**Q.** What about the GI50 ([2]; HCC1954, HCC1954 cell line, censored GI50 values) of the same compound?
**A.** 372 nM

**Q.** And the GI50 ([2]; HCC1954, cell line HCC1954)?
**A.** 372 nM

**Q.** What about the GI50 ([2]; HCC2185 cell line, censored GI50 values) of the same compound?
**A.** 69.2 nM

**Q.** And the GI50 ([2]; HCC3153 cell line, censored GI50 values)?
**A.** 295 nM

**Q.** And the GI50 ([2]; MCF7, MCF7 cell line, censored GI50 values)?
**A.** 79.4 nM

**Q.** What about the GI50 ([2]; MCF7, cell line MCF7) of the same compound?
**A.** 79.4 nM

**Q.** And the GI50 ([2]; MDA-MB-134-VI, MDAMB134VI cell line, censored GI50 values)?
**A.** 66.1 nM

**Q.** What about the GI50 ([2]; MDA-MB-175-VII, MDAMB175VII cell line, censored GI50 values) of the same compound?
**A.** 389 nM

**Q.** What about the GI50 ([2]; MDA-MB-361, MDAMB361 cell line, censored GI50 values) of the same compound?
**A.** 50.1 nM

**Q.** What about the GI50 ([2]; MDA-MB-361, cell line MDAMB361) of the same compound?
**A.** 50.1 nM

**Q.** What about the GI50 ([2]; MDA-MB-415, MDAMB415 cell line, censored GI50 values) of the same compound?
**A.** 39.8 nM

**Q.** And the GI50 ([2]; MDA-MB-415, cell line MDAMB415)?
**A.** 39.8 nM

**Q.** What about the GI50 ([2]; MDA-MB-436, MDAMB436 cell line, censored GI50 values) of the same compound?
**A.** 251 nM

**Q.** And the GI50 ([2]; MDA-MB-436, cell line MDAMB436)?
**A.** 251 nM

**Q.** What about the GI50 ([2]; MDA-MB-453, MDAMB453 cell line, censored GI50 values) of the same compound?
**A.** 49 nM

**Q.** And the GI50 ([2]; MDA-MB-453, cell line MDAMB453)?
**A.** 49 nM

**Q.** And the GI50 ([2]; MDA-MB-468, MDAMB468 cell line, censored GI50 values)?
**A.** 234 nM

**Q.** What about the GI50 ([2]; MDA-MB-468, cell line MDAMB468) of the same compound?
**A.** 234 nM

**Q.** What about the GI50 ([2]; SK-BR-3, SKBR3 cell line, censored GI50 values) of the same compound?
**A.** 55 nM

**Q.** And the GI50 ([2]; SK-BR-3, cell line SKBR3)?
**A.** 55 nM

**Q.** And the GI50 ([2]; SUM52PE, SUM52PE cell line, censored GI50 values)?
**A.** 170 nM

**Q.** And the GI50 ([2]; SUM52PE, cell line SUM52PE)?
**A.** 170 nM

**Q.** What about the GI50 ([2]; SUM149PT, SUM149PT cell line, censored GI50 values) of the same compound?
**A.** 316 nM

**Q.** And the GI50 ([2]; SUM149PT, cell line SUM149PT)?
**A.** 316 nM

**Q.** What about the GI50 ([2]; SUM185PE, SUM185PE cell line, censored GI50 values) of the same compound?
**A.** 77.6 nM

**Q.** What about the GI50 ([2]; SUM185PE, cell line SUM185PE) of the same compound?
**A.** 77.6 nM

**Q.** What about the GI50 ([2]; SUM1315MO2, SUM1315MO2 cell line, censored GI50 values) of the same compound?
**A.** 251 nM

**Q.** What about the GI50 ([2]; SUM-159-PT, SUM159PT cell line, censored GI50 values) of the same compound?
**A.** 132 nM

**Q.** What about the GI50 ([2]; SUM-159-PT, cell line SUM159PT) of the same compound?
**A.** 132 nM

**Q.** What about the GI50 ([2]; T47D, T47D cell line, censored GI50 values) of the same compound?
**A.** 151 nM

**Q.** And the GI50 ([2]; T47D, cell line T47D)?
**A.** 151 nM

**Q.** And the GI50 ([2]; UACC-812, UACC812 cell line, censored GI50 values)?
**A.** 129 nM

**Q.** What about the GI50 ([2]; UACC-812, cell line UACC812) of the same compound?
**A.** 129 nM

**Q.** And the GI50 ([2]; ZR-75-1, ZR751 cell line, censored GI50 values)?
**A.** 195 nM

**Q.** What about the GI50 ([2]; ZR-75-1, cell line ZR751) of the same compound?
**A.** 195 nM

**Q.** And the GI50 ([2]; ZR-75B, ZR75B cell line, censored GI50 values)?
**A.** 83.2 nM

**Q.** What about the GI50 ([2]; ZR-75B, cell line ZR75B) of the same compound?
**A.** 83.2 nM

**Q.** What about the GI50 ([2]; cell line 600MPE) of the same compound?
**A.** 186 nM

**Q.** What about the GI50 ([2]; cell line HCC2185) of the same compound?
**A.** 69.2 nM

**Q.** What about the GI50 ([2]; cell line HCC3153) of the same compound?
**A.** 295 nM

**Q.** What about the GI50 ([2]; cell line MDAMB134V) of the same compound?
**A.** 66.1 nM

**Q.** What about the GI50 ([2]; cell line MDAMB175V) of the same compound?
**A.** 389 nM

**Q.** What about the GI50 ([2]; cell line SUM1315MO) of the same compound?
**A.** 251 nM

From patent US10770169B2, “Method of providing a treatment to a subject based on a dynamic pathway map” (THE REGENTS OF THE UNIVERSITY OF CALIFORNIA, priority 2010, dated 2020)
